Data on five molecules can be found in paper PMC10058748, “Triterpenoids of Three Apple Cultivars—Biosynthesis, Antioxidative and Anti-Inflammatory Properties, and Fate during Processing” (Molecules, 2023).

≈ marks a conversion by molar mass, not a printed value. Bounds are passed on as bounds.

Series [1] deals with T1, cyclooxygenase 1 (COX-1) (Homo sapiens, UniProt P23219).
T1 construct: purchased Cayman Chemicals 701070
Put plainly: COX-1 inhibition (commercial kit, Cayman Chemicals item 701070). Particulars: expressed per dry mass; 1% DMSO. It is filed as biochemical.

Series [2] addresses T2, cyclooxygenase 2 (COX-2) (Homo sapiens, UniProt P35354).
T2 sequence (P35354 18-604): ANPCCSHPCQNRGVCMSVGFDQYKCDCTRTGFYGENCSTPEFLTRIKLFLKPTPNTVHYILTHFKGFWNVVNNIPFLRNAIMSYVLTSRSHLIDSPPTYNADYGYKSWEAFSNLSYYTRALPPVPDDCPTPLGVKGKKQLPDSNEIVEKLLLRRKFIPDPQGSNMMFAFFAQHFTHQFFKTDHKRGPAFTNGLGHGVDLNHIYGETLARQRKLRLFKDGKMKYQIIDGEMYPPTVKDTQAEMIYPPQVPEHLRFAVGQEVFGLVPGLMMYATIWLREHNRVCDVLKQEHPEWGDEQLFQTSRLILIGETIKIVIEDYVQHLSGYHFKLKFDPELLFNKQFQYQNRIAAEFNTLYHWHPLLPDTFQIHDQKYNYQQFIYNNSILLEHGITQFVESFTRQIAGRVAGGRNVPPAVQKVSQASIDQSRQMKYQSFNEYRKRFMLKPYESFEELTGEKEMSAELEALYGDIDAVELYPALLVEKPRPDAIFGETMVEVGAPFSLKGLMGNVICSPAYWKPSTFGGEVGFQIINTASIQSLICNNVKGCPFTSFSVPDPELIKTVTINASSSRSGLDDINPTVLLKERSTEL
Put plainly: COX-2 inhibition (commercial kit, Cayman Chemicals item 701080). It is filed as biochemical. The following applies: expressed per dry mass; 1% DMSO.

Series [3] deals with T3, 5-lipoxygenase (5-LOX) (Homo sapiens, UniProt P09917).
T3 construct: purchased abcam ab284521
T3 sequence (P09917 1-674): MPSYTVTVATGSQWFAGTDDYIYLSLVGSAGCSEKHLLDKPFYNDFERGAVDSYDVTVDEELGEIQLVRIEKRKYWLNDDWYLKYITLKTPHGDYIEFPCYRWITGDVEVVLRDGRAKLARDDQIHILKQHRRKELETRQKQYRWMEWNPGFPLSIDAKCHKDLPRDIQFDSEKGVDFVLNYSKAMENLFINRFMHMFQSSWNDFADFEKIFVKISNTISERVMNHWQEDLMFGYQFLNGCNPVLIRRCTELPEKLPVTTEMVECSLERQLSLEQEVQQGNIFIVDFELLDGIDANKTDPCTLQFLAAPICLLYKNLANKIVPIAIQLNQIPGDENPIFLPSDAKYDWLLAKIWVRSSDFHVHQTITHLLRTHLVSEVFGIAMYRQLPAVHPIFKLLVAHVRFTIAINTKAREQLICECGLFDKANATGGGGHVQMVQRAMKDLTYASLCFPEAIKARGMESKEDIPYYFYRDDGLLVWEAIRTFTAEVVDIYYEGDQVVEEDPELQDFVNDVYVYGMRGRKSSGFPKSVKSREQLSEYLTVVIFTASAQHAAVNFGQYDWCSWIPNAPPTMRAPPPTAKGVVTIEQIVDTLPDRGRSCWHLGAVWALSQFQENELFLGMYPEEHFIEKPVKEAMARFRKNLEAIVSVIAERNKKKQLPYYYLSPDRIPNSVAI
Put plainly: 5-LOX inhibition (commercial kit, abcam ab284521). The following applies: expressed per dry mass; 1% DMSO. It is filed as biochemical. How it is done: The selected peel extracts as well as the standards of triterpenic compounds were analyzed for their antioxidative and anti-inflammatory properties. Due to their hydrophobic character, the samples were dissolved in dimethyl sulfoxide (DMSO). The content of DMSO in the reaction media in all the tests described below was 1% for all the tested samples as well as the controls.
The anti-inflammatory activity was evaluated using commercial kits for three enzymes of biological activity: cyclooxygenases 1 and 2 (COX-1 and COX-2) and 5-lipoxygenase (5-LOX), according to the instructions of the producers. Inhibition of the cyclooxygenases was measured using kits from Cayman Chemicals (Ann Arbor, MI, USA; items 701070 and 701080, respectively), while 5-LOX inhibition was measured using a kit from abcam (Cambridge, UK; item no. ab284521).

Series [4] in a line: ABTS radical cation scavenging activity. The following applies: expressed per dry mass; 1% DMSO; 6 min incubation, 734 nm.
Protocol: The scavenging activity against ABTS^•+ was measured with a protocol described by Re et al. [63]. […] Then, 25 µL samples were mixed with 2.5 mL of ABTS^•+ solution and incubated for 6 min. […] Trolox was chosen as a reference antioxidant.
The nature of series [5]: DPPH radical scavenging activity. The following applies: expressed per dry mass; 1% DMSO; 30 min at room temperature, 517 nm.
Protocol: A method described by Yen and Chen was used to determine the activity against DPPH^• [64]. Briefly, 0.1 mL samples were mixed with 2 mL of DPPH^• solution (1 mM) and incubated at room temperature for 30 min. […] Trolox was chosen as a reference antioxidant.
For series [6] the following is noted: heating; cited from earlier work.

T1 sequence (P23219 24-599): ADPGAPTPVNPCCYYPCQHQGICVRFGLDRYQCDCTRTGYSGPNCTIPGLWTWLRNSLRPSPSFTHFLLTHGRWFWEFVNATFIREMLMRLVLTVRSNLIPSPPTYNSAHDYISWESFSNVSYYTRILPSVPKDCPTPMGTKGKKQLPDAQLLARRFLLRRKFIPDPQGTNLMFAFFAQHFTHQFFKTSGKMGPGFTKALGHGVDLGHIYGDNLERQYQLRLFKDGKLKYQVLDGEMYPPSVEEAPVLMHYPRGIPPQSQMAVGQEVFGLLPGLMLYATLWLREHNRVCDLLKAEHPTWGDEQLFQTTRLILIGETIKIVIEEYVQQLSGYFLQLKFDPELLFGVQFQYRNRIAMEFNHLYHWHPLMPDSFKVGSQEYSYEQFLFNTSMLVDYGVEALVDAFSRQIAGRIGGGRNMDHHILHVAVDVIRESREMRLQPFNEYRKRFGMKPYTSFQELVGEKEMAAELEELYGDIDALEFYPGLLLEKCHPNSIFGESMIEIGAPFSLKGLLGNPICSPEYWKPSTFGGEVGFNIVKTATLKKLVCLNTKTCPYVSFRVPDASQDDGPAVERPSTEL

With `O=C(/C=C/c1ccc(O)c(O)c1)O[C@@H]1C[C@](O)(C(=O)O)C[C@@H](O)[C@H]1O` [Chlorogenic Acid, chlorogenic acid], the IC50 (commonly the concentration that gives 50% inhibition) was 2960 µM in series [1], 1730 µM in series [2] and over 14100 µM in series [3].
Regarding `CC1(C)CC[C@]2(C(=O)O)CC[C@]3(C)C(=CC[C@@H]4[C@@]5(C)CC[C@H](O)C(C)(C)[C@@H]5CC[C@]43C)[C@@H]2C1` [Oleanolic Acid, Oleanolic acid], the “IC50 ABTS^•+ scavenging” value in series [4] was 155 ± 7 µg/mL (≈ 339 µM). Further, in series [5], the “IC50 DPPH^• scavenging” value is 96 ± 5 µg/mL (≈ 210 µM). The molecule also showed an IC50 in series [3] of 1400 µM. The “temperature above which degradative processes occur” value in series [6] was “above 200 °C”.
Regarding `C[C@H]1[C@H](C)CC[C@]2(C(=O)O)CC[C@]3(C)C(=CC[C@@H]4[C@@]5(C)CC[C@H](O)C(C)(C)[C@@H]5CC[C@]43C)[C@H]12` [Ursolic Acid, Ursolic acid], the IC50 in series [1] was 114 µM; in series [2], 67.9 µM; in series [3] it was 1570 µM.
For `CC[C@H](CC[C@@H](C)[C@H]1CC[C@H]2[C@@H]3CC=C4C[C@@H](O)CC[C@]4(C)[C@H]3CC[C@]12C)C(C)C` [β-Sitosterol, β-sitosterol], the IC50 was 921 µM in series [2] and 4200 µM in series [3].
`O=C(CCc1ccc(O)cc1)c1c(O)cc(O)cc1O[C@@H]1O[C@H](CO)[C@@H](O)[C@H](O)[C@H]1O` [Phloridzin, phloridzin]: the IC50 in series [1] was 2200 µM; in series [2], 1480 µM; in series [3], over 11500 µM. Moreover, the “IC50 ABTS^•+ scavenging” value in series [4] is 34 ± 4 µg/mL (≈ 77.9 µM). The “IC50 DPPH^• scavenging” value in series [5] amounted to 23 ± 3 µg/mL (≈ 52.7 µM).
